Where “and” joins values, the source holds several entries; their conditions need not be identical. Equal values may be shown once. Entries after “also recorded” stand apart in the source; their conditions may differ.
Key:
[1] = Repeat dose study: safety and tolerability; type: in vivo, human; details: for safety and tolerability: twice daily (12-hourly) oral dose up to 4 mg
Description: (§1) Two clinical studies were carried out: a single dose study and a repeat dose study. Both studies were parallel-group, double-blind, dose-rising, and placebo-controlled in design.
(§2) In each group, 1 subject received placebo. […] In each group, 2 subjects received placebo.
(§3) Healthy young men, aged 18-45 years.
(§4) In the repeated dose study, an aqueous 0.5% methylcellulose suspension (Methocel A4M Premium, The Dow Chemical Company) was used. In both studies, the study medication was taken orally as a drink, followed by 50 ml of tap water.
(§5) The following procedures were done: • Safety assesment: laboratory assessments (routine biochemistry and urinalysis), physical examination, 12-lead ECO, ambulatory ECG, pulmonary function testing (FEV1), vital signs (semi-recumbent in the single dose study; semi-recumbent and standing in the repeat dose study).
(§6) Data from all subjects who received IB-MECA were included in the analysis of safety and tolerability (adverse events and laboratory safety variables). Numerical data and parameters were summarised using means or medians, and other descriptive statistics, according to the type and distribution of the data.

[2] = test system: various tumour cell types; details: arresting cell growth at GO/GI phase; Fishman et al, 2000a; cited from earlier work
[3] = test system: syngeneic (melanoma, colon carcinoma) and xenograft (colon and prostate carcinoma) mouse models; details: cited from earlier work
[4] = Single dose study: plasma pharmacokinetics after a single oral dose; type: in vivo, human; details: for AUC(0-48): mean (SD)
Description: as §1, §2, §3, §4, §5
(§7) Plasma samples were assayed for IB-MECA using LC/MS/MS. The lower limit of quantification (LLOQ) was 0.1 ng/mL. Intra-assay coefficients of variation (CV) were <5.0% and inter-assay CVs were <9.4%.
(§8) Maximum concentration (Cmax) and time to maximum concentration (tmax) were observed values. Other pharmacokinetic parameters (half-life, to AUC; and clearance, CL/F) were calculated by non-compartmental methods using WinNonlin® software (version 3.0, Pharsight, Mountain View, Calif., US). Accumulation indices of Cmax and AUC were calculated as ratio of values at steady state (Day 7) to the values on Day 1.

[5] = Repeat dose study: plasma pharmacokinetics on Days 1 and 7 of 12-hourly oral dosing; type: in vivo, human
Description: as §1, §2, §3, §4, §5, §7, §8

[6] = Water solubility; type: physicochemical
[7] = test system: neutrophils; details: cited from earlier work
[8] = Single dose study: safety and tolerability; type: in vivo, human; details: for safety and tolerability: single (daily) oral dose up to 5 mg
Description: as §1, §2, §3, §4, §5, §6

[9] = 2 mg oral every 12 h, Day 1, mean (SD), n = 5
[10] = 2 mg oral every 12 h, Day 7, mean (SD), n = 5
[11] = 3 mg oral every 12 h, Day 1, mean (SD), n = 5
[12] = 3 mg oral every 12 h, Day 7, mean (SD), n = 5
[13] = 4 mg oral every 12 h, Day 1, mean (SD), n = 5
[14] = 4 mg oral every 12 h, Day 7, mean (SD), n = 5
[15] = 5 mg oral every 12 h, Day 1, mean (SD), n = 5
[16] = 5 mg oral every 12 h, Day 7, mean (SD), n = 5

CNC(=O)[C@H]1O[C@@H](n2cnc3c(NCc4cccc(I)c4)ncnc32)[C@H](O)[C@@H]1O [IB-MECA, methyl 1-[N6-(3-iodobenzyl)-adenin-9-yl]-β-D-ibofuronamide]
adverse events ([1]; 5 mg oral twice daily): some cardiovascular-related adverse events; also recorded: headache and drowsiness were most common | safety tests of blood and urine ([1]; repeat dose study): no clinically significant changes | heart rate ([1]; repeat dose study, Day 1): dose-related increase | heart rate effect ([1]; repeat dose study, Day 7 versus Day 1): clearly smaller | adverse events within 12 h of dosing (number) ([1]; repeated doses of 5 mg 12-hourly): 13 | adverse events within 12 h of dosing (number) ([1]; repeated doses of up to 4 mg 12-hourly): 2 | safety and tolerability [1]: safe and well tolerated | safety and tolerability ([1]; listed as 13-MCA): well tolerated | maximum tolerated dose ([1]; twice-daily therapeutic regimen): 4 mg | effect on tumour cell growth [2]: cytostatic effect | colon carcinoma growth ([3]; oral administration, nude mice): inhibits colon carcinoma growth | development of tumours ([3]; orally administered, syngeneic and xenograft mouse models): inhibits the development of tumours | plasma level (Cmax) at safe doses ([4]; single daily dose of 5 mg and twice daily dose of 4 mg): < 80 ng/mL | AUC(0-48) ([4]; single oral dose 1 mg, n = 4): 220.7 ng·h/mL | tmax ([4]; single oral dose 1 mg, median (range), n = 4): 1 (1-2) h | AUC(0-48) ([4]; single oral dose 5 mg, n = 4): 872.3 ng·h/mL | tmax ([4]; single oral dose 5 mg, median (range), n = 4): 1 (1-2) h | AUC(0-48) ([4]; single oral dose 10 mg, n = 4): 1780.0 ng·h/mL | tmax ([4]; single oral dose 10 mg, median (range), n = 4): 1 (1-2) h | inter-subject variability ([4]; single oral doses): low | pharmacokinetics (linearity) ([4]; single oral doses 1, 5, 10 mg): linear | tmax ([4]; single oral doses 1, 5, 10 mg, overall range): 1 to 2 h | apparent plasma clearance (CL/F) ([4]; single oral doses, independent of dose): 47 L/h | AUC(0-12) [5, 9]: 155.2 (39.1) ng · h/mL | AUC(inf) [5, 9]: 207.4 (52.0) ng · h/mL | tmax ([5]; 2 mg oral every 12 h, Day 1, median (range), n = 5): 2 (1-4) h | AUC(0-12) [5, 10]: 242.4 (41.4) ng · h/mL | AUC(0-24) [5, 10]: 346.3 (64.0) ng · h/mL | tmax ([5]; 2 mg oral every 12 h, Day 7, median (range), n = 5): 2 (1-2) h | AUC(0-12) [5, 11]: 304.5 (19.5) ng · h/mL | AUC(inf) [5, 11]: 423.5 (27.5) ng · h/mL | tmax ([5]; 3 mg oral every 12 h, Day 1, median (range), n = 5): 2 (1-2) h | AUC(0-12) [5, 12]: 341.6 (38.1) ng · h/mL | AUC(0-24) [5, 12]: 512.1 (74.1) ng · h/mL | tmax ([5]; 3 mg oral every 12 h, Day 7, median (range), n = 5): 1 (1-2) h | AUC(0-12) [5, 13]: 297.0 (57.2) ng · h/mL | AUC(inf) [5, 13]: 400.2 (85.7) ng · h/mL | tmax ([5]; 4 mg oral every 12 h, Day 1, median (range), n = 5): 2 (1-2) h | AUC(0-12) [5, 14]: 458.3 (54.8) ng · h/mL | AUC(0-24) [5, 14]: 640.3 (73.7) ng · h/mL | tmax ([5]; 4 mg oral every 12 h, Day 7, median (range), n = 5): 1 (1-2) h | AUC(0-12) [5, 15]: 461.6 (157.4) ng · h/mL | AUC(inf) [5, 15]: 596.1 (196.6) ng · h/mL | tmax ([5]; 5 mg oral every 12 h, Day 1, median (range), n = 5): 2 (1-2) h | AUC(0-12) [5, 16]: 601.0 (163.6) ng · h/mL | AUC(0-24) [5, 16]: 818.4 (214.0) ng · h/mL | tmax ([5]; 5 mg oral every 12 h, Day 7, median (range), n = 5): 2 (2-2) h | dose proportionality of plasma concentrations ([5]; Day 1 and steady state (Day 7)): dose proportional | tmax ([5]; repeated oral doses 2-5 mg every 12 h, overall): 1 to 2 h | time at which steady state was reached ([5]; repeated oral doses every 12 h): ≤ 3 days | change of pharmacokinetics after repeated dosing ([5]; repeated oral doses every 12 h for 7 days): did not change | Half-life at steady state ([5]; repeated oral doses, Day 7, independent of dose): 9 to 10 h | apparent plasma clearance (CL/F) ([5]; repeated oral doses, independent of dose): 5 to 10 L/h | water solubility [6]: not water soluble | myelotoxicity ([7]; administered with chemotherapy): protects against myelotoxicity | neutrophil recovery ([7]; oral administration, after cytotoxic drug therapy): stimulates neutrophil recovery | production of neutrophils ([7]; oral, mice, via an increase in G-CSF): stimulates the production of neutrophils | blood level correlated with side effects ([8]; healthy adults, oral dosing): exceeding 160 nM and > 80 ng/ml | safety and tolerability [8]: safe and well tolerated | safety and tolerability ([8]; listed as 13-MCA): well tolerated | side effects ([8]; single daily oral dose 10 mg): some cardiovascular-related side effects | change in resting heart rate ([8]; single dose 5 mg, four subjects): small increase | adverse events within 12 h of dosing (number) ([8]; single dose of 10 mg): 8 | safety tests of blood and urine ([8]; single dose study): no clinically significant changes | change in blood pressure ([8]; single dose study, not measured standing): In no subject was there a significant change
